Data: patent US9663496B2, “AMPK-activating heterocyclic compounds and methods for using the same” (Rigel Pharmaceuticals, Inc., priority 2010, dated 2017)

Target: AMPK
Assay: AMPK activation, enzyme-linked immunosorbent assay
Format: biochemical
Details: EC50 for AMPK activation, ELISA
Summary of the method: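 Read-out: immunodetected kinase activation after compound exposure, run with commercial kit reagents.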

EC50	SMILES
< 500 nM	N#Cc1ccc(OC2CCN(C(=O)c3ccc(C(=O)N[C@H]4CC[C@@H](Oc5ccc(F)cc5)CC4)nc3)CC2)cc1 [Compound 303, 5-(4-(4-cyanophenoxy)piperidine-1-carbonyl)-N-((cis)-4-(4-fluorophenoxy)cyclohexyl)picolinamide]
< 500 nM	N#Cc1ccc(CN2CCC(NC(=O)c3ccc(C(=O)N4CCC(C(=O)c5ccc(N=[N+]=[N-])cc5)CC4)nc3)CC2)cc1 [Compound 240, 6-(4-(4-azidobenzoyl)piperidine-1-carbonyl)-N-(1-(4-cyanobenzyl)piperidin-4-yl)nicotinamide]
< 500 nM	CN1CCN(c2ccc(C(=O)C3CCN(C(=O)c4ccc(C(=O)NC5CCN(Cc6ccc(C#N)cc6)CC5)cn4)CC3)cc2)CC1 [Compound 243, N-(1-(4-cyanobenzyl)piperidin-4-yl)-6-(4-(4-(4-methylpiperazin-1-yl)benzoyl)piperidine-1-carbonyl)nicotinamide]
< 500 nM	COc1ccc(CN2CCC(NC(=O)c3ccc(C(=O)N4CCC(Oc5ccc(F)cc5)CC4)cn3)CC2)cc1 [Compound 161, 5-(4-(4-fluorophenoxy)piperidine-1-carbonyl)-N-(1-(4-methoxybenzyl)piperidin-4-yl)picolinamide]
< 500 nM	COc1ccc(C(=O)C2CCN(C(=O)c3ccc(C(=O)NC4CCN(Cc5ccc(C#N)cc5)CC4)cn3)CC2)cc1 [Compound 309, N-(1-(4-cyanobenzyl)piperidin-4-yl)-6-(4-(4-methoxybenzoyl)piperidine-1-carbonyl)nicotinamide]
1000 to 5000 nM	CC(=O)Nc1cccc(OC2CCN(C(=O)c3ccc(C(=O)NC4CCN(Cc5ccc(C#N)cc5)CC4)cn3)CC2)c1 [Compound 411, 6-(4-(3-acetamidophenoxy)piperidine-1-carbonyl)-N-(1-(4-cyanobenzyl)piperidin-4-yl)nicotinamide]
1000 to 5000 nM	COc1cccc(CN2CCC(NC(=O)c3ccc(C(=O)N4CCC(S(=O)(=O)c5ccc(F)cc5)CC4)nc3)CC2)c1 [Compound 475, 6-(4-(4-fluorophenylsulfonyl)piperidine-1-carbonyl)-N-(1-(3-methoxybenzyl)piperidin-4-yl)nicotinamide]
< 500 nM	O=C(Nc1ccc(Oc2ccc(F)cc2)nc1)c1ccc(C(=O)N2CCC(Oc3ccc(S(F)(F)(F)(F)F)cc3)CC2)nc1 [Compound 496, N-(6-(4-fluorophenoxy)pyridin-3-yl)-6-(4-(4-(pentafluorosulfanyl)phenoxy)piperidine-1-carbonyl)nicotinamide]
< 500 nM	N#Cc1ccc(OC2CCN(C(=O)c3ccc(C(=O)NC4CCN(Cc5cc(F)cc(F)c5)CC4)nc3)CC2)cc1 [Compound 289, 5-(4-(4-cyanophenoxy)piperidine-1-carbonyl)-N-(1-(3,5-difluorobenzyl)piperidin-4-yl)picolinamide]
< 500 nM	N#Cc1ccc(Oc2ccc(NC(=O)c3ccc(C(=O)N4CCN(Cc5ccc(F)cc5)CC4)nc3)cn2)cc1 [Compound 476, N-(6-(4-cyanophenoxy)pyridin-3-yl)-6-(4-(4-fluorobenzyl)piperazine-1-carbonyl)nicotinamide]
< 500 nM	COc1ccc(CN2CCC(NC(=O)c3ccc(C(=O)N4CCC(C(=O)c5ccc(F)cc5F)CC4)cn3)CC2)cc1 [Compound 331, 5-(4-(2,4-difluorobenzoyl)piperidine-1-carbonyl)-N-(1-(4-methoxybenzyl)piperidin-4-yl)picolinamide]
< 500 nM	CC(=O)c1ccc(OC2CCN(C(=O)c3ccc(C(=O)NC4CCN(Cc5ccc(C#N)cc5)CC4)cn3)CC2)cc1 [Compound 390, 6-(4-(4-acetylphenoxy)piperidine-1-carbonyl)-N-(1-(4-cyanobenzyl)piperidin-4-yl)nicotinamide]
< 500 nM	CC(=O)c1ccc(Oc2ccc(NC(=O)c3ccc(C(=O)N4CCC(Oc5ccc(S(=O)(=O)C6CC6)cc5)CC4)nc3)cn2)cc1 [Compound 486, N-(6-(4-acetylphenoxy)pyridin-3-yl)-6-(4-(4-(cyclopropylsulfonyl)phenoxy)piperidine-1-carbonyl)nicotinamide]
< 500 nM	O=C(Nc1ccc(Oc2ccc(F)cc2)nc1)c1cnc(C(=O)N2CCC(C(=O)c3ccc(F)cc3F)CC2)cn1 [Compound 206, 5-(4-(2,4-difluorobenzoyl)piperidine-1-carbonyl)-N-(6-(4-fluorophenoxy)pyridin-3-yl)pyrazine-2-carboxamide]
